According to patent US20100216777A1, “AMINOPYRAZINE ANALOGS FOR TREATING GLAUCOMA AND OTHER RHO KINASE-MEDIATED DISEASES AND CONDITIONS” (ALCON, INC., priority 2004, published 2010):
Counter-ions that a name gives are not always drawn.

Biological target: T1, Human Recombinant ROCK-II Enzyme (ROKα/ROCK-II, aa 11-552) (Homo sapiens, UniProt O75116)
T1 construct: (ROKα/ROCK-II, (aa 11-552), human active); purchased Upstate Biotechnology Co., Lake Placid, N.Y. 14-451
Assay: ROCK-II inhibition, fluorescence polarization assay (IMAP ROCK II kit)
Type: biochemical
Details: substrate 200 nM, ATP 10 μM, 60 min at 23° C., read-out: Enzyme Inhibition Constants (IC50) against Human Recombinant ROCK-II Enzyme
Procedure: The ability of certain compounds of Formula (I) to inhibit rho kinase was evaluated by means of in vitro assays. Human recombinant Rho kinase (ROKα/ROCK-II, (aa 11-552), human active, catalog #14-451, Upstate Biotechnology Co., Lake Placid, N.Y.), MgCl2/ATP cocktail, and enzyme substrate (Upstate) are used.
The fluorescence polarization assays are performed using a Biomek 2000 Robotic Workstation (Beckman Instruments, Palo Alto, Calif.) in a 96-well plate format. The assays are performed utilizing the IMAP ROCK II kit (Molecular Devices, Sunnyvale, Calif.) as follows. Substrate and ATP concentrations used are 200 nM and 10 μM, respectively, while the enzyme concentration is 3.96×10^−3 units per well. The substrate, enzyme, and ATP dilutions are made with the reaction buffer provided by the vendor. Test compounds are diluted in 10:10 DMSO-ethanol (vol/vol). For the actual assays, the various components are added into black, clear bottom, 96-well plates (Costar, Corning, N.Y.) in a final volume of 20 μl per well. After the enzyme reaction (60 min at 23° C.), 60 μl of the binding solution (IMAP kit, provided by vendor) is added per well and incubated for an additional 30 minutes in the dark at 23° C. Fluorescence polarization of the reaction mixtures is then measured on the Analyst™ HT instrument (Molecular Devices, Sunnyvale, Calif.).
The data generated are then analyzed using a non-linear, iterative, sigmoidal-fit computer program purchased from IDBS (Emeryville, Calif.) and as previously described (Sharif et al., J. Pharmacol. Exp. Ther. 286:1094-1102, 1998; Sharif et al., J. Pharmacol. Expt. Ther. 293:321-328, 2000; Sharif et al., J. Ocular Pharmacol. Ther. 18:141-162, 2002a; Sharif et al., J. Pharmac. Pharmacol. 54:539-547, 2002b) to generate the inhibition constants for the test compounds.

T1 sequence (O75116 11-552): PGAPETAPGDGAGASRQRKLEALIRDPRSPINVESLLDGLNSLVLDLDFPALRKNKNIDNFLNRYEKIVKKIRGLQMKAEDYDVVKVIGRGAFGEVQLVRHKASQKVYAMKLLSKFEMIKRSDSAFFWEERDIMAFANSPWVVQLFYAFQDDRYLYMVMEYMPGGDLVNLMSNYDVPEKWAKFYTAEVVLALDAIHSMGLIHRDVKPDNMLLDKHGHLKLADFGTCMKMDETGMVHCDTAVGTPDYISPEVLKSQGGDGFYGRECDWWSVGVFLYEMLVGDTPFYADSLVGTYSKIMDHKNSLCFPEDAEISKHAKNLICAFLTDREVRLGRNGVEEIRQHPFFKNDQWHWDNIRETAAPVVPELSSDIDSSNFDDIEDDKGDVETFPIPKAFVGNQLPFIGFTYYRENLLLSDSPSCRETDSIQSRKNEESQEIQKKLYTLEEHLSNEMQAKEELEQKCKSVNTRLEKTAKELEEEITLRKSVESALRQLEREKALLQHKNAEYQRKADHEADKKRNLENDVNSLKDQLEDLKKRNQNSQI

Row | Structure (SMILES) | IC50 [nM]
1 | Cc1n[nH]c2ccc(-c3cnc(N4CCCC4)c(N4CCCNCC4)n3)cc12 [Example 43, 5-(6-(1,4-Diazepan-1-yl)-5-(pyrrolidin-1-yl)pyrazin-2-yl)-3-methyl-1H-indazole hydrochloride] | 0.11
2 | c1cc(-c2cnc(N3CCCC3)c(NC3CCCNC3)n2)ccn1 (stereo not shown) [Example 45, N-(Piperidin-3-yl)-6-(pyridin-4-yl)-3-(pyrrolidin-1-yl)pyrazin-2-amine dihydrochloride] | 0.25
3 | c1cc(-c2cnc(N3CCCC3)c(OC3CCNCC3)n2)ccn1 [Example 46, 3-(Piperidin-4-yloxy)-5-(pyridin-4-yl)-2-(pyrrolidin-1-yl)pyrazine] | 0.084
4 | c1cc(-c2cnc(N3CCCC3)c(OC3CCNCC3)n2)c2cc[nH]c2n1 [Example 47, 4-(6-(Piperidin-4-yloxy)-5-(pyrrolidin-1-yl)pyrazin-2-yl)-1H-pyrrolo[2,3-b]pyridine] | 0.054
5 | c1cc(-c2cnc(N3CCCCC3)c(NC3CCCNC3)n2)ccn1 (stereo not shown) [Example 49, 3-(Piperidin-1-yl)-N-(piperidin-3-yl)-6-(pyridin-4-yl)pyrazin-2-amine] | 0.3
6 | c1cc(-c2cnc(N3CCCCCC3)c(NC3CCCNC3)n2)ccn1 (stereo not shown) [Example 51, 3-(Azepan-1-yl)-N-(piperidin-3-yl)-6-(pyridin-4-yl)pyrazin-2-amine dihydrochloride] | 0.19

The remaining lines, values ahead:

Row | IC50 [nM] | Structure (SMILES)
7 | 0.078 | OCCN1CCN(c2nc(-c3ccncc3)cnc2N2CCCC2)CC1 [Example 44]
8 | 0.56 | CN1CCCN(c2nc(-c3ccncc3)cnc2N2CCCCC2)CC1 [Example 48, 1-Methyl-4-(3-(piperidin-1-yl)-6-(pyridin-4-yl)pyrazin-2-yl)-1,4-diazepane hydrochloride]
9 | 0.02 | CN1CCCN(c2nc(-c3ccncc3)cnc2N2CCCCCC2)CC1 [Example 50, 1-(3-(Azepan-1-yl)-6-(pyridin-4-yl)pyrazin-2-yl)-4-methyl-1,4-diazepane hydrochloride]
10 | 6.3 | CN1CCCN(c2nc(-c3ccncc3)cnc2N2CCOCC2)CC1 [Example 52, 4-(3-(4-Methyl-1,4-diazepan-1-yl)-5-(pyridin-4-yl)pyrazin-2-yl)morpholine trihydrochloride]
